How the values were obtained:
Adenosine receptor A2a = Adenosine receptor A2a (Homo sapiens, UniProt P29274)
[1] = molecular target: T1, Alpha-2A adrenergic receptor (Homo sapiens, UniProt P08913); type: functional, cell-based
T1 sequence (P08913 whole entry): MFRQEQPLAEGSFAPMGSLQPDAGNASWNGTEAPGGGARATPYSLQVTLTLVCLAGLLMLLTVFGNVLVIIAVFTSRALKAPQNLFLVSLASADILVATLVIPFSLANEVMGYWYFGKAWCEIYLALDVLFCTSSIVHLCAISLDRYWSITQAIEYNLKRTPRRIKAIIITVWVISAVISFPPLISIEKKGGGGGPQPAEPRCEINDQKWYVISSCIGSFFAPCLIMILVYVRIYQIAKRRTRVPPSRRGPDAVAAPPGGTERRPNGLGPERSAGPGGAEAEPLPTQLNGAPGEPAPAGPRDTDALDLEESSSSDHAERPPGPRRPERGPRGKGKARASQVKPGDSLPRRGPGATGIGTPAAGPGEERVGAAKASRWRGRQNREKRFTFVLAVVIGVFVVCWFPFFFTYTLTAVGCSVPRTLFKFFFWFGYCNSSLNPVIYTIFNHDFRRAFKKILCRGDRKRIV

Vasopressin V1a receptor = Vasopressin V1a receptor (Homo sapiens, UniProt P37288)
Sequence of Vasopressin V1a receptor (P37288 whole entry): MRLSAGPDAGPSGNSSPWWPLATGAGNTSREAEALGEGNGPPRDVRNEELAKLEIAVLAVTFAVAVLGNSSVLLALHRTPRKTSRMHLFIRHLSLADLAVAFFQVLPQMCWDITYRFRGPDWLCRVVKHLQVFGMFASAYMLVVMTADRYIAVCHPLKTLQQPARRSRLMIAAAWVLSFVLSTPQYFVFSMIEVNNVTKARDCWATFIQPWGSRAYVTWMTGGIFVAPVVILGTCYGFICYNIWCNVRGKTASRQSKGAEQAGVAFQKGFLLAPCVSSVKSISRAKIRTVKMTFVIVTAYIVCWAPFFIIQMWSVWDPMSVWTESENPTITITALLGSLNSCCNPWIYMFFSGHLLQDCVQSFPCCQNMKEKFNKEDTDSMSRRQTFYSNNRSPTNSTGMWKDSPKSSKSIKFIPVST

[2] = molecular target: T2, Muscarinic acetylcholine receptor M1 (Homo sapiens, UniProt P11229); type: functional
T2 sequence (P11229 whole entry): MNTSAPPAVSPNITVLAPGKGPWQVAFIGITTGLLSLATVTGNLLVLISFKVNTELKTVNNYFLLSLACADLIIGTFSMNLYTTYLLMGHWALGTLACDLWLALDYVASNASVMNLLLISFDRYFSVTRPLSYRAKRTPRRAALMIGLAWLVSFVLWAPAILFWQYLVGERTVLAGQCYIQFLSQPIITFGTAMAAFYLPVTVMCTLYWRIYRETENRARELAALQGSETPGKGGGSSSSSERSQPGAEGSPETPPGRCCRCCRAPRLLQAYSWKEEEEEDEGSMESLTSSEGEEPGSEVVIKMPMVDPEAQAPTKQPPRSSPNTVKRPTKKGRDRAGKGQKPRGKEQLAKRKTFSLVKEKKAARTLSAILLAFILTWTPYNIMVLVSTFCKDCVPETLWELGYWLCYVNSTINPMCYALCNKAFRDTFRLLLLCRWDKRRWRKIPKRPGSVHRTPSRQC

D(1A) dopamine receptor = D(1A) dopamine receptor (Homo sapiens, UniProt P21728); type: functional, cell-based
Sequence of D(1A) dopamine receptor (P21728 whole entry): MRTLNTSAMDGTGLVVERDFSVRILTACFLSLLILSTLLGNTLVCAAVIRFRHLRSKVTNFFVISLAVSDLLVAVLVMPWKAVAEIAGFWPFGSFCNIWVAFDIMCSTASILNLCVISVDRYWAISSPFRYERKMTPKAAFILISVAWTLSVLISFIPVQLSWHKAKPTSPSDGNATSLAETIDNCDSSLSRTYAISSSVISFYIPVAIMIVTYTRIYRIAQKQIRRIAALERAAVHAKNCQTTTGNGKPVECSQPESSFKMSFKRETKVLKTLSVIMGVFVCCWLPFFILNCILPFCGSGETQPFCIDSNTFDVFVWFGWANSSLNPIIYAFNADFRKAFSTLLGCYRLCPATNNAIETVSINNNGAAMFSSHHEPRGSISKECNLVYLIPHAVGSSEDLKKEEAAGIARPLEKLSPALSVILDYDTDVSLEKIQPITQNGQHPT

Histamine H1 receptor = Histamine H1 receptor (Homo sapiens, UniProt P35367)
Sequence of Histamine H1 receptor (P35367 whole entry): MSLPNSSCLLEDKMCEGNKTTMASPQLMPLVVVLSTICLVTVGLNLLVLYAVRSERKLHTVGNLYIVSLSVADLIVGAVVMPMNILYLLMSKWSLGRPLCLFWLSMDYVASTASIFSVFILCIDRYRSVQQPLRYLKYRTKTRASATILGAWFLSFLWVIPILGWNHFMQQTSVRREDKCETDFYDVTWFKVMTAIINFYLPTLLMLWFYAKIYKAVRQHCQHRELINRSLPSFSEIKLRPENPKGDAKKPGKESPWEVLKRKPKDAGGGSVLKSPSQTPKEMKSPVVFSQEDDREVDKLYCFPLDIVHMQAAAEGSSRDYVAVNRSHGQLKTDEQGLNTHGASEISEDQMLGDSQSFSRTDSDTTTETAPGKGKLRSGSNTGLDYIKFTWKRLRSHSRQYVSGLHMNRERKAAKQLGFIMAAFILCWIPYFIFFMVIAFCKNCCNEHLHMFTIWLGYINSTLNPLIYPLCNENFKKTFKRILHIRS

[3] = molecular target: T3, 5-hydroxytryptamine receptor 3A (Homo sapiens, UniProt P46098); type: functional
T3 sequence (P46098 whole entry): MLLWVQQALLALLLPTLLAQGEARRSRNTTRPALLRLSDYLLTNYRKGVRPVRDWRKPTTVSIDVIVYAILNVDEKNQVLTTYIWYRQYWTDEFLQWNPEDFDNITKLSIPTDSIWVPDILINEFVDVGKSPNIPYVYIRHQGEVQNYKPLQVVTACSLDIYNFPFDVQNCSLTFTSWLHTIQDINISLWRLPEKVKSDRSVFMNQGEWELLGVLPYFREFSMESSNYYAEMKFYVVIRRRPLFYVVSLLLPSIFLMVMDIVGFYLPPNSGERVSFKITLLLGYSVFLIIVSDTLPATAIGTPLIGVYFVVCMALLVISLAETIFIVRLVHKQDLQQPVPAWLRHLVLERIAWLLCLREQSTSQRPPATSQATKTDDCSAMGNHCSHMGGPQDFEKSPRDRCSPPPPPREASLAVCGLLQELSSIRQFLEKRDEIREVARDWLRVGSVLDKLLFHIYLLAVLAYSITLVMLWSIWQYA

Glucocorticoid receptor = molecular target: T4, Glucocorticoid receptor (Homo sapiens, UniProt P04150)
T4 sequence (P04150 whole entry): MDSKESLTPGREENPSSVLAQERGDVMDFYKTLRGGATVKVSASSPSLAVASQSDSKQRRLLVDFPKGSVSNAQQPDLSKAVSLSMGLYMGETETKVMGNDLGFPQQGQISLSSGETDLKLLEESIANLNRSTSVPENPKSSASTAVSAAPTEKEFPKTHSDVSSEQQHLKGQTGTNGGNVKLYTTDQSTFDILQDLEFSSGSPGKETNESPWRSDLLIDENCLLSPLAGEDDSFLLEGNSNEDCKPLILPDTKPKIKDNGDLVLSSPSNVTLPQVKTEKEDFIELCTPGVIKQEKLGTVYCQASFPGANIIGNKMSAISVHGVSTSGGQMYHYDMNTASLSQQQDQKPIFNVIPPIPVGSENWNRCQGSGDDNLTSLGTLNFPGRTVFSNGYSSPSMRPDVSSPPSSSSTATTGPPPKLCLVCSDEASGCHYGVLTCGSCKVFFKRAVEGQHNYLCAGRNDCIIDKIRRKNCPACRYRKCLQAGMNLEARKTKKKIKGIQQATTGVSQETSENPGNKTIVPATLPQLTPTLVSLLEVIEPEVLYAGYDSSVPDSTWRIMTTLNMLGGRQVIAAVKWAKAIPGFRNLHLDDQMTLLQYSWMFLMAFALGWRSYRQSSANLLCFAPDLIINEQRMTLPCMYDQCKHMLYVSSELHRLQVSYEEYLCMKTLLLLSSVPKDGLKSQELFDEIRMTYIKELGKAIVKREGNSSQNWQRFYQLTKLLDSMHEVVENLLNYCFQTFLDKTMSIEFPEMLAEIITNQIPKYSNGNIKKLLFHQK

[4] = molecular target: Sodium-dependent dopamine transporter (Homo sapiens, UniProt Q01959)
Sequence of Sodium-dependent dopamine transporter (Q01959 whole entry): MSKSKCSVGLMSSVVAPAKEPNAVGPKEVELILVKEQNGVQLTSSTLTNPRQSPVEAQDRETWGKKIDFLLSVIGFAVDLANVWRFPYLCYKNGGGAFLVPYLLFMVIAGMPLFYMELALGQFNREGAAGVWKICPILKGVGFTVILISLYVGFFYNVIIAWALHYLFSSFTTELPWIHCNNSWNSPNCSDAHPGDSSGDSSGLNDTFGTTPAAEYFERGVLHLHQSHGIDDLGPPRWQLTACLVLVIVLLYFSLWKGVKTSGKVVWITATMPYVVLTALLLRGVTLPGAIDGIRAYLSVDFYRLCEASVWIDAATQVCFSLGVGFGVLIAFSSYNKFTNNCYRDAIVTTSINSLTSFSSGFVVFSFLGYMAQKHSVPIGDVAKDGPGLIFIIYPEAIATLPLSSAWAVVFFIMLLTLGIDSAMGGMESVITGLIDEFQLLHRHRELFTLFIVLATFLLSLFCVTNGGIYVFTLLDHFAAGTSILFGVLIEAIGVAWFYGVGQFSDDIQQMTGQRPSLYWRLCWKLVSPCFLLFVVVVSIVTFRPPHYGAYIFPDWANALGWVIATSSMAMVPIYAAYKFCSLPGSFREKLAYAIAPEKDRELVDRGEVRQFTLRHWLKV

[5] = molecular target: Sodium-dependent noradrenaline transporter (Homo sapiens, UniProt P23975)
Sequence of Sodium-dependent noradrenaline transporter (P23975 whole entry): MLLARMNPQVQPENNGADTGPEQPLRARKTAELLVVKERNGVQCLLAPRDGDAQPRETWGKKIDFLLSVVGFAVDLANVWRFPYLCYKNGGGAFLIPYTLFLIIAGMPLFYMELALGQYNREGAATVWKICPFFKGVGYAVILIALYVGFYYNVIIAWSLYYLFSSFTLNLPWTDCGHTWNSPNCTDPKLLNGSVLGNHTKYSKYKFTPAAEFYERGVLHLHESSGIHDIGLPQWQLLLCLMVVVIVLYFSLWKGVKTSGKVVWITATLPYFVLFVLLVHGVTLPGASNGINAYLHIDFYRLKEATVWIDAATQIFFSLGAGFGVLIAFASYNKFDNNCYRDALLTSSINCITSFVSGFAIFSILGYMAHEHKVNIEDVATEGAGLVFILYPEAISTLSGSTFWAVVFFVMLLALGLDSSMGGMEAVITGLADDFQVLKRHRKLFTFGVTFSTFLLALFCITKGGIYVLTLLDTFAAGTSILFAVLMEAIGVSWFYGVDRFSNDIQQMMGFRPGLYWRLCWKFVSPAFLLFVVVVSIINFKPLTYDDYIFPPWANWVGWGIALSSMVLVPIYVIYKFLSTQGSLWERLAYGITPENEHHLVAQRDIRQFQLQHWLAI
Note: assay procedure not described here.

Sequence of Adenosine receptor A2a (P29274 whole entry): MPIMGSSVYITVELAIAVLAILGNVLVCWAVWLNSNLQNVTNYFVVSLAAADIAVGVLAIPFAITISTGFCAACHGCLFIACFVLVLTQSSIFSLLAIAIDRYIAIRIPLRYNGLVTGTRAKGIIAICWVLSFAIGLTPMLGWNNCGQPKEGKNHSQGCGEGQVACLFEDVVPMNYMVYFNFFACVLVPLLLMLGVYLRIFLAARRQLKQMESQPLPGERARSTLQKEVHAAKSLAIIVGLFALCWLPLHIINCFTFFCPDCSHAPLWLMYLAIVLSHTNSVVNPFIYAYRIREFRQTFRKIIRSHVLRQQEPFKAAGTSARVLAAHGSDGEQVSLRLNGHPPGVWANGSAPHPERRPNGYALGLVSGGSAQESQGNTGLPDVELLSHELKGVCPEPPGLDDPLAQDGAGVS

Row | Molecule | AC50 (Adenosine receptor A2a) [µM] | AC50 [1] [µM] | AC50 (Vasopressin V1a receptor) [µM] | AC50 [2] [µM] | AC50 (D(1A) dopamine receptor) [µM] | AC50 (Histamine H1 receptor) [µM] | AC50 [3] [µM] | AC50 (Glucocorticoid receptor) [µM] | AC50 [4] [µM] | AC50 [5] [µM]
1 | CS(=O)(=O)NC(=O)CCC/C=C\C[C@H]1C(=O)C[C@@H](O)[C@@H]1/C=C/[C@@H](O)COc1ccccc1 [SULPROSTONE] | > 30 | > 30 | > 30 | > 30 | > 30 | > 30 | > 30 | > 30 | > 30 | > 30
2 | CCOC(=O)C1=C(C)NC(C)=C(C(=O)OC)C1c1cccc(Cl)c1Cl (configuration not stated) [FELODIPINE] | > 30 | > 10 | > 10 |  | > 10 |  | > 10 | 9.94 | 13.3 | > 10
3 | TEPRENONE | > 30 | > 10 | > 30 | > 10 | > 10 | > 10 | > 30 | > 30 | > 30 | > 30
4 | O=C(O)CCCC[C@@H]1SC[C@@H]2NC(=O)N[C@@H]21 [BIOTIN] | > 10 | > 10 |  | > 10 | > 10 | > 10 | > 30 | > 10 | > 10 | > 10
5 | N=C(N)NC(=O)Cc1c(Cl)cccc1Cl [GUANFACINE] | > 30 |  | > 30 |  | > 30 |  | > 30 | > 30 | > 30 | > 30
6 | CCC(=O)[C@@]1(C)[C@H](C)C[C@H]2[C@@H]3CCC4=CC(=O)C=C[C@]4(C)[C@H]3[C@@H](O)C[C@@]21C [RIMEXOLONE] | > 10 | > 10 | > 10 | > 10 | > 10 | > 10 | > 30 | 0.01 | > 10 | > 10
7 | O=C1CN=C(c2ccccc2Cl)c2cc([N+](=O)[O-])ccc2N1 [CLONAZEPAM] | > 30 | > 10 | > 10 |  | > 10 |  | > 30 | > 30 | > 10 | > 10
8 | Cc1cccc(Nc2ccncc2S(=O)(=O)NC(=O)NC(C)C)c1 [TORSEMIDE] | > 30 | > 10 | > 30 |  | > 10 |  | > 30 | > 10 | > 10 | > 10
9 | CC(NC(C)(C)C)C(=O)c1cccc(Cl)c1 (configuration not stated) [BUPROPION] | > 30 | > 10 | > 10 |  | > 10 |  | > 10 | > 30 |  | 
10 | Cc1nnc2n1-c1ccc(Cl)cc1C(c1ccccc1)=NC2 [ALPRAZOLAM] | > 30 | > 10 | > 10 |  | > 10 |  | > 30 | > 30 | > 10 | > 10
11 | CC(=O)N1CCN(c2ccc(OCC3COC(Cn4ccnc4)(c4ccc(Cl)cc4Cl)O3)cc2)CC1 (configuration not stated) [KETOCONAZOLE] | > 30 | > 10 | > 10 |  | > 10 |  | > 30 | > 10 | > 30 | > 30

— ChEMBL document CHEMBL5291721, “A preclinical secondary pharmacology resource illuminates target-adverse drug reaction associations of marketed drugs” (Nat Commun, 2023)
